According to ChEMBL document CHEMBL1201862, “PubChem BioAssay data set” (2004):
Calls of active or inactive are those of the source.

Tests used:
[1] = loss of viability in embryonic kidney cells – cell-based, HEK293T, ATP luminescence, dry powder, cytotoxicity control, dose response (AID 652119); assay type: functional; conditions: HEK293
[2] = biological target: Protein disulfide-isomerase (Homo sapiens, UniProt P07237); test: inhibition of PDI-mediated insulin reduction – biochemical, turbidity, dry powder samples, set 2, confirmation (AID 652146)
[3] = biological target: ADP-ribosylation factor GTPase-activating protein 1 (Rattus norvegicus, UniProt Q62848); test: Fluorescence polarization-based biochemical high throughput dose response screening assay to identify inhibitors of ADP-ribosylation factor GTPase activating protein 1 (ARFGAP1).; assay type: functional
[4] = biological target: Arf-GAP with SH3 domain, ANK repeat and PH domain-containing protein 1 (Homo sapiens, UniProt Q9ULH1); assay type: functional;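 further: biochemical fluorescence polarization dose–response screen measuring inhibition of ASAP1; ASAP1 GAP domain stimulating GTP hydrolysis by truncated human ARF1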
[5] = biological target: T1, Methionyl-tRNA synthetase, putative (Trypanosoma brucei brucei, UniProt Q38C91); assay type: functional, Trypanosoma brucei brucei strain 927/4 GUTat10.1
[6] = Counterscreen for inhibitors of Trypanosoma brucei methionyl tRNA synthetase (MetRS): Luminescence-based cell-based high throughput dose response assay to identify compounds that are cytotoxic to Jurkat human T lymphocyte cells.; assay type: functional
[7] = biological target: T1, Methionyl-tRNA synthetase, putative; assay type: functional, Trypanosoma brucei brucei strain 927/4 GUTat10.1; remark: listed apart in the source
[8] = viability loss in HepG2 cells – cell-based, luminescence, dry powder, set 5, cytotoxicity control, dose response (AID 743185); assay type: functional
[9] = Luminescence Cell-Based Dose Retest to Confirm Inhibitors of Cancer Stem Cells. [Related pubchem assays (depositor defined):AID2717, AID2721]; assay type: functional; conditions: Homo sapiens
[10] = biological target: T2, Beta-2 adrenergic receptor (Homo sapiens, UniProt P07550); test: ADRB2 activation measured by internalization – cell-based, FAP fluorogen, flow cytometry, cherry pick 1, dose response (AID 588763); assay type: functional
[11] = biological target: T2, Beta-2 adrenergic receptor; test: Dose response for HTS for Beta-2AR agonists via FAP method from Powderset3.; assay type: functional
Mu-type opioid receptor = Mu-type opioid receptor (Homo sapiens, UniProt P35372); assay type: functional, cell-based;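 further: U2OS cells with beta-arrestin recruitment to OPRM1 by beta-gal complementation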
[12] = biological target: 5-hydroxytryptamine receptor 2A (Mus musculus, UniProt P35363); assay type: functional, cell-based;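 further: CHO-K1 cells with tagged receptor and beta-arrestin; agonist potency measured as compound-induced activation of the receptor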
[13] = biological target: T3, Carboxy-terminal domain RNA polymerase II polypeptide A small phosphatase 1 (Homo sapiens, UniProt Q9GZU7); test: CTDSP1 inhibitors, concentration-response, biochemical, absorbance readout, ultra-high-throughput screen actives (AID 540297); assay type: functional
T3 sequence (Q9GZU7 whole entry): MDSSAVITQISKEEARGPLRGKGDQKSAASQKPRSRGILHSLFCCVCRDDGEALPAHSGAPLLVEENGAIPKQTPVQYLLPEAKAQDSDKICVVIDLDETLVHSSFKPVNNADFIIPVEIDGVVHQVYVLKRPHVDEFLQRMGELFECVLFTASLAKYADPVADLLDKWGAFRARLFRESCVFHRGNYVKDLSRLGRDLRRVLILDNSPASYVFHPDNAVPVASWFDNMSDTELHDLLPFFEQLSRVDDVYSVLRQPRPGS

[14] = biological target: T4, Corticotropin-releasing factor receptor 2/Corticotropin-releasing factor-binding protein (Homo sapiens, UniProt P24387+Q13324); test: Dose Response confirmation of uHTS hits for small molecule antagonists of the CRF-binding protein and CRF-R2 receptor complex.; assay type: functional; conditions: read-out: IC50_Mean
T4 sequence (Q13324 whole entry): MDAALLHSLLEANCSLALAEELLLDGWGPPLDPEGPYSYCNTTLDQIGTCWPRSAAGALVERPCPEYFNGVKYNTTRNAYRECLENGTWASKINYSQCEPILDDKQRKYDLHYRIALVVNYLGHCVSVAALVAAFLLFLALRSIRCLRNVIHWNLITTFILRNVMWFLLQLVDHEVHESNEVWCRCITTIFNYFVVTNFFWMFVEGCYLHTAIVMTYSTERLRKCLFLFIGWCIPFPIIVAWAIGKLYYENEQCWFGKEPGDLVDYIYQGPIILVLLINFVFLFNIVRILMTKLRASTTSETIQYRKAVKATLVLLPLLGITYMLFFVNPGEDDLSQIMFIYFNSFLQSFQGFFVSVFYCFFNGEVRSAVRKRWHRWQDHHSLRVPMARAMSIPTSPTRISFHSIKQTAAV
T4 sequence (P24387 whole entry): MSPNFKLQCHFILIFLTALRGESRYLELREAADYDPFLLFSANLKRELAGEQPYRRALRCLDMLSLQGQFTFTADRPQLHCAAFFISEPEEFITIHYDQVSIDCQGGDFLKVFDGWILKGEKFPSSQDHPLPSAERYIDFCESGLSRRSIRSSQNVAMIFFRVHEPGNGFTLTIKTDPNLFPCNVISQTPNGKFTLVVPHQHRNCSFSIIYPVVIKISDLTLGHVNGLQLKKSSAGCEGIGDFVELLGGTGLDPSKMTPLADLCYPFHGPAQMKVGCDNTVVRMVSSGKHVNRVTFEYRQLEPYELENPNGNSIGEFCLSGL

[15] = biological target: Tyrosine-protein phosphatase non-receptor type 11 (Homo sapiens, UniProt Q06124); test: PTPN11 enzyme inhibitors – biochemical, selectivity assay for STEP inhibitor project, dose response (AID 602367); assay type: functional; conditions: read-out: IC50_Mean
[16] = biological target: Tyrosine-protein phosphatase non-receptor type 5 (Homo sapiens, UniProt P54829); test: PTPN5 enzyme inhibition – biochemical, fluorescence intensity, uHTS hits, confirmation (AID 602372); assay type: functional; conditions: read-out: IC50_Mean
[17] = biological target: T4, Corticotropin-releasing factor receptor 2/Corticotropin-releasing factor-binding protein; test: activators of CRF receptor 2 with binding protein – uHTS hits, confirmation (AID 602473); assay type: functional; conditions: read-out: EC50_Mean
[18] = biological target: Dual specificity protein phosphatase 3 (Homo sapiens, UniProt P51452); test: VHR phosphatase inhibition, dose response, selectivity assay for STEP inhibitor project, biochemical (AID 602374); assay type: functional; conditions: read-out: IC50_Mean
[19] = biological target: T5, Small ubiquitin-related modifier 1 (Homo sapiens, UniProt P63165); test: SUMO1 protein interaction blockers, potency – biochemical, fluorescence polarization, uHTS hits, dose response (AID 624382); assay type: functional; conditions: read-out: IC50_Mean
[20] = biological target: T5, Small ubiquitin-related modifier 1; test: SUMO1 protein-protein binding blockers, potency – biochemical, FRET, dose response (AID 624383); assay type: functional; conditions: read-out: IC50_Mean
[21] = biological target: T6, Tyrosine-protein phosphatase non-receptor type 22 (Homo sapiens, UniProt Q9Y2R2); test: lymphoid phosphatase LYP inhibitors – biochemical, selectivity assay for STEP inhibitor project, dose response (AID 624241); assay type: functional
T6 sequence (Q9Y2R2 whole entry): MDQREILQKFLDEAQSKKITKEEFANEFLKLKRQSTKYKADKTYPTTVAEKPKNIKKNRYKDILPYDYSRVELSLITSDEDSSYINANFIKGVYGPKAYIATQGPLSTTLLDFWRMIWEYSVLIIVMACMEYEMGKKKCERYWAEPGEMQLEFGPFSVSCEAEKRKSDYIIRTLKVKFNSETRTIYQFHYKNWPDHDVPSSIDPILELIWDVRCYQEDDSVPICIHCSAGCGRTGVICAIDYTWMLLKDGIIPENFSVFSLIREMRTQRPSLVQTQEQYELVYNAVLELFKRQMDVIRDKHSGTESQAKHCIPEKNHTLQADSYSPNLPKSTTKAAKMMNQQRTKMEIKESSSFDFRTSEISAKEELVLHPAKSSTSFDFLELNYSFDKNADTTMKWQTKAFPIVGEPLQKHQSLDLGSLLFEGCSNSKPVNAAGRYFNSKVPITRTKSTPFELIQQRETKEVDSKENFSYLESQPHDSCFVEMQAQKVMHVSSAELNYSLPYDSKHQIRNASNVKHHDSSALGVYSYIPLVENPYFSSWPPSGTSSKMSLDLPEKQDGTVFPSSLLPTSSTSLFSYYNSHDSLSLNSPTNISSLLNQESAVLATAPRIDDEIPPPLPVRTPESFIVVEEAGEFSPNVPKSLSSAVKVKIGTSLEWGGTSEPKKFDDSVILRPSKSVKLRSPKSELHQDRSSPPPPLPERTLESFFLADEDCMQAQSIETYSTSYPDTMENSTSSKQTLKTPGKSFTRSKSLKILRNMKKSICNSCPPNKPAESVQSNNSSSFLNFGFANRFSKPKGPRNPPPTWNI

T2 sequence (P07550 whole entry): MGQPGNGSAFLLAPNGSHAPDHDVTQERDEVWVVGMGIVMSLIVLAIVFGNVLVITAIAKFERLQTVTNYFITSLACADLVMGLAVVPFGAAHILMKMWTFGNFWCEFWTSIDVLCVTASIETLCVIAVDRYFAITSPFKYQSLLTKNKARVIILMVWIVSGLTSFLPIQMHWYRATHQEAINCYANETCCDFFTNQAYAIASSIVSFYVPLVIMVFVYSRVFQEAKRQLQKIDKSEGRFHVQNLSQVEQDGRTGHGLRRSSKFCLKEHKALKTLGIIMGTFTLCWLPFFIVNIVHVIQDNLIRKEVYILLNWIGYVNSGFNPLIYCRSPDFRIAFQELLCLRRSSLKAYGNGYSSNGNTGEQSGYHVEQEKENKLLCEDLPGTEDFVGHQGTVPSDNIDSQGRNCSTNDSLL
T1 sequence (Q38C91 whole entry): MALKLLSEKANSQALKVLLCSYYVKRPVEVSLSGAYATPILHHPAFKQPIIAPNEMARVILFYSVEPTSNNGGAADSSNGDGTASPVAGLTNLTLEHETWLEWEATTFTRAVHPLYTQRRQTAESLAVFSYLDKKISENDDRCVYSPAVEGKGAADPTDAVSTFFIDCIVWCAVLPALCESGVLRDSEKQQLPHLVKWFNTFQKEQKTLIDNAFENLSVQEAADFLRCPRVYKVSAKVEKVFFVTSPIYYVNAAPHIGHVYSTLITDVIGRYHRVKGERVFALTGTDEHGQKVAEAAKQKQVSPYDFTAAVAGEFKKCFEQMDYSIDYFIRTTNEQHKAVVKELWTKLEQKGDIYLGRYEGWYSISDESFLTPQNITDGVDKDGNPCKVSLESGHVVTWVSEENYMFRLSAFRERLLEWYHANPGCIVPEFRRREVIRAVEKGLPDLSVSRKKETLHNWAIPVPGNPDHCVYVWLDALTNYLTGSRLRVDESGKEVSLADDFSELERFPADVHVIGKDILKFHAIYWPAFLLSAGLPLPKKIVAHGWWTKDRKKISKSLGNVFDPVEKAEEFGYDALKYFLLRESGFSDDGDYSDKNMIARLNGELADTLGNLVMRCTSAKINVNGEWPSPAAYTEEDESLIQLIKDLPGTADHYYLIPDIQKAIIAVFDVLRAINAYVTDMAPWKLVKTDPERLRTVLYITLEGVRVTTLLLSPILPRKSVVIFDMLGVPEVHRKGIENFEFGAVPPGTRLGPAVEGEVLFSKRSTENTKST
T5 sequence (P63165 whole entry): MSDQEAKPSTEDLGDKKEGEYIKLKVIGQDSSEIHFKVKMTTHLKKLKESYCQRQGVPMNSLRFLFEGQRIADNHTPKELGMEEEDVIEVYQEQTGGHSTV
Chain of Arf-GAP with SH3 domain, ANK repeat and PH domain-containing protein 1 (Q9ULH1 whole entry, the tested form may be a part): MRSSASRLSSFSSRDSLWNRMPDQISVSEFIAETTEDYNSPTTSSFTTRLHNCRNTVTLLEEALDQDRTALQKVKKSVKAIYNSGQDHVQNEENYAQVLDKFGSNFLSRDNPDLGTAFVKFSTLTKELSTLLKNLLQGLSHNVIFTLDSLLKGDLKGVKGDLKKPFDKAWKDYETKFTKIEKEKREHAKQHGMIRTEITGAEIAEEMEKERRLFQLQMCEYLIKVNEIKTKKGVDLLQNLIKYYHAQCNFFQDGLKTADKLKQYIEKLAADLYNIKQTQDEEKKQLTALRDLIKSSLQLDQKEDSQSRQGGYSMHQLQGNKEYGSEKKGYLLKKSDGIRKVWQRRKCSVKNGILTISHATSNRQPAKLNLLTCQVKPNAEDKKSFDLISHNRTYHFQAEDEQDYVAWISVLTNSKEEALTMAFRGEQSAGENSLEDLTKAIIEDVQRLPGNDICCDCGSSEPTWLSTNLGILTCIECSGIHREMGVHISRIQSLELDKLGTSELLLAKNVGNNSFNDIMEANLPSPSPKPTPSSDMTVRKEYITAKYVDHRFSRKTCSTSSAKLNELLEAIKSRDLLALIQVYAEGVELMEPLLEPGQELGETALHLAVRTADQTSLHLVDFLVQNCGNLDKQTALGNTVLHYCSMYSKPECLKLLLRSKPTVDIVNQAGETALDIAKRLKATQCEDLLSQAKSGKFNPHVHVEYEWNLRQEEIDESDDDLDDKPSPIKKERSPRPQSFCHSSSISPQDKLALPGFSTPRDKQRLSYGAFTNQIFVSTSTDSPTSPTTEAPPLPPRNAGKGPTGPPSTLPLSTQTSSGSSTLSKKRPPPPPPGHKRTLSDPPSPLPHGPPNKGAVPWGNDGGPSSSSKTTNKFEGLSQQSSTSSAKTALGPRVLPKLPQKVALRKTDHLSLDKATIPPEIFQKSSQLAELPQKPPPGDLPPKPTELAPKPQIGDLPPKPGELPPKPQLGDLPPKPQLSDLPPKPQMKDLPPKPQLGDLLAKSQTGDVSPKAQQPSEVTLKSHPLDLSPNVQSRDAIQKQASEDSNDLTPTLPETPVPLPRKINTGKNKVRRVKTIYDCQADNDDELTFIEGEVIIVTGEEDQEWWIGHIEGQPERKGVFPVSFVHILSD
Chain of Tyrosine-protein phosphatase non-receptor type 5 (P54829 whole entry): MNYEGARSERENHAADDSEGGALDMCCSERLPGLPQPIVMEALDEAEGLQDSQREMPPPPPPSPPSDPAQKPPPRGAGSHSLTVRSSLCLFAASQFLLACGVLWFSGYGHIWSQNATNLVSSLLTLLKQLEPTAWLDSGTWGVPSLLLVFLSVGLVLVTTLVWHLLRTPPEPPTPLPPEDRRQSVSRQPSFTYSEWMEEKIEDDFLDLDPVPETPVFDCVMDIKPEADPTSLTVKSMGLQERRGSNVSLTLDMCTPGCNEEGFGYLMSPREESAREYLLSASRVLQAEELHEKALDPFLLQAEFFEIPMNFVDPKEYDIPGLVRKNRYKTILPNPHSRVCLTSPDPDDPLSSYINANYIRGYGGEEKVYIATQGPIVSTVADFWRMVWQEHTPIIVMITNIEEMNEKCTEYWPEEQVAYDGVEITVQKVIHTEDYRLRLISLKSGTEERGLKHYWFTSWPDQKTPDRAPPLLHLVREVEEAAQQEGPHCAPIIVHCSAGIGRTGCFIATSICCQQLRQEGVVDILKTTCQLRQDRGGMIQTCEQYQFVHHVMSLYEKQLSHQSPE
Chain of ADP-ribosylation factor GTPase-activating protein 1 (Q62848 whole entry, the tested form may be a part): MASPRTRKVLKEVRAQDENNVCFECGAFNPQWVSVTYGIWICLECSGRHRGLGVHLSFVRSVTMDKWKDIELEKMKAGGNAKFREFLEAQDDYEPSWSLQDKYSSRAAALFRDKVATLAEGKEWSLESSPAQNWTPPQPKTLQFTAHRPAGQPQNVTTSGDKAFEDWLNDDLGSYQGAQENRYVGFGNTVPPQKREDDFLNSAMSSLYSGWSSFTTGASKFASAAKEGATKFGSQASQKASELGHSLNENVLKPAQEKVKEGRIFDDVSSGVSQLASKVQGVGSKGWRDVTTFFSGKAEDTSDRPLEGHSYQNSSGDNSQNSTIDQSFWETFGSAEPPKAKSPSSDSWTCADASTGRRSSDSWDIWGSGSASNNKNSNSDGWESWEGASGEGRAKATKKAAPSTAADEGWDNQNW
Chain of 5-hydroxytryptamine receptor 2A (P35363 whole entry, the tested form may be a part): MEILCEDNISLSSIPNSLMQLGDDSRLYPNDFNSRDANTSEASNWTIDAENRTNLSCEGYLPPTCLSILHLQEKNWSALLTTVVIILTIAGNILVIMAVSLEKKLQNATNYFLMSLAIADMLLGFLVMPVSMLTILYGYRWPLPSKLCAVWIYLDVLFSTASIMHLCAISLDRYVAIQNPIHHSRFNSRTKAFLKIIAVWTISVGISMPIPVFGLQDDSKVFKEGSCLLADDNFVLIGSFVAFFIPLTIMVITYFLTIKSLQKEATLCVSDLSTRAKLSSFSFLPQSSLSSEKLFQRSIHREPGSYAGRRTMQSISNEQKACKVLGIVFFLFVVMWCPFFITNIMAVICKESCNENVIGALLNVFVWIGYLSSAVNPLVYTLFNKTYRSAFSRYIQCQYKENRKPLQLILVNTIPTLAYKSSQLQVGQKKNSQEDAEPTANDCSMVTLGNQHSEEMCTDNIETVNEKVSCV
Chain of Dual specificity protein phosphatase 3 (P51452 whole entry): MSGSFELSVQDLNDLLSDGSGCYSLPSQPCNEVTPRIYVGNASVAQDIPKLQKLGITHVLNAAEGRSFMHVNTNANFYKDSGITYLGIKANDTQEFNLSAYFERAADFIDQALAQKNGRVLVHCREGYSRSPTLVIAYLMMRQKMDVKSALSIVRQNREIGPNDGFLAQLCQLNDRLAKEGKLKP
Chain of Tyrosine-protein phosphatase non-receptor type 11 (Q06124 whole entry): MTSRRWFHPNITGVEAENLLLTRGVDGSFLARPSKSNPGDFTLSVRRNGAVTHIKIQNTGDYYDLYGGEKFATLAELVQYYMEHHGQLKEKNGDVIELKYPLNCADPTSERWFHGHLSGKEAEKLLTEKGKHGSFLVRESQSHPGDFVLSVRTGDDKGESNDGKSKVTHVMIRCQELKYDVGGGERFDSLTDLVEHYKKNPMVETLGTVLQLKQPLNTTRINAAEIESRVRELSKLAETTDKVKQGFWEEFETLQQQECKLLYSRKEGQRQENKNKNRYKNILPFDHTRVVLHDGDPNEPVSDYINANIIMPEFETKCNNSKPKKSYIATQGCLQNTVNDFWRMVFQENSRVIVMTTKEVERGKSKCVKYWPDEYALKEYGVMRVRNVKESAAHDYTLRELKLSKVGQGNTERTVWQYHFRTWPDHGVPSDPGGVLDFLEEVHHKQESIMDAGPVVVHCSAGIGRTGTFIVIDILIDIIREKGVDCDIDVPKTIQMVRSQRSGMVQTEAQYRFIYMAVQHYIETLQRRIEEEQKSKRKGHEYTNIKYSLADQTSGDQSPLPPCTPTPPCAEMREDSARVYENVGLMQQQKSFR

In the case of `C=CCOc1ccc(CN2CCC(CCOc3ccccc3)(C(=O)NCC)CC2)cc1Cl`, the AC50 [1] is reported as > 52 µM (inactive) and the AC50 [2] is reported as > 30 µM (inactive).
For `CC1=CC2=NC(=O)/C(=C\c3ccc(-c4cccc(Cl)c4)o3)C(=N)N2O1`, the IC50 [3] was 2.03 µM (active) and the IC50 [4] was 13.3 µM (inactive).
With `Cc1ccc2[nH]c3c(NCCCN4CCCC4=O)ncnc3c2c1` the IC50 [5] was 27.9 µM (inactive), the IC50 [6] was 17.9 µM (inactive) and the IC50 [7] was 23.3 µM (inactive).
With `O=C(N/N=C/c1c[nH]c2ccccc12)c1cccc(O)c1` the AC50 [8] was > 52 µM (inactive).
In the case of `Cc1ncc(CN2CCCC(C(=O)Nc3ccc(-c4cccc(F)c4)cc3)C2)s1` (configuration not stated), the AC50 [9] is reported as 6.84 µM (active), the EC50 [10] is reported as 3.37 µM (active) and the EC50 [11] is reported as 731 nM (active).
In the case of `CC(C)(C)C1CCC(OCC(O)CN2CCN(c3ccccn3)CC2)CC1` (configuration not stated), the EC50 (Mu-type opioid receptor) is reported as 92.5 µM (inactive) and the EC50 [12] is reported as 548 nM (active).
For `CN(C)c1ccc(C(=O)OCC(=O)Nc2ccc(S(N)(=O)=O)cc2)cc1`, the IC50 [13] was 8.63 µM (active), the IC50 [14] was > 47.1 µM (inactive) and the IC50 [15] was 4.13 µM (active). For the same molecule, the IC50 [16] was 7.3 µM (active), the EC50 [17] was > 53 µM (inactive) and the IC50 [18] was 6.56 µM (active). The IC50 [19] was > 66.6 µM (inactive), the IC50 [20] was 12.8 µM (active) and the IC50 [21] was 67.7 µM (inactive).
